Where “and” joins values, the source holds several entries; their conditions need not be identical. Equal values may be shown once. Entries after “also recorded” stand apart in the source; their conditions may differ.
Key:
Glucose tolerance test = format: in vivo, rats; set-up: Glucose tolerance test, 0 min (1 h after effector administration): unit not given here; conditions: for glucose levels in the glucose tolerance test: compared with the control group
Excerpt: 5 animals were used within the same experimental group.

[1] = Intraperitoneal administration of zinc preparations to intact rats (insulin, superoxide dismutase, islets of Langerhans, metals, body weight); format: in vivo; conditions: 7 injections; for accumulation of zinc in the kidney tissues / accumulation of zinc in the liver tissues: day 1 and day 7 after withdrawal
Description: The current dose was calculated by zinc.
The rat serum was prepared from whole blood.
The total kidney and liver homogenates were centrifuged at 600 g for 15 minutes.
The optical density was measured at 492 nm.

[2] = test system: products of oxidative modification of proteins; assay: Serum levels of products of oxidative modification of proteins in obesity model; format: in vivo; conditions: DIO rats (high-fat diet), zinc aspartate 4.5 mg/animal intragastrically every third day, week 10
Description: (§1) Animal serum was prepared from whole blood. […] Samples were centrifuged for 15 min at 2500 g.
Proteins were precipitated by adding a 20% TCA solution.

[3] = test system: pro-inflammatory (IL-1, IL-6, IL-12, IFN-γ) and anti-inflammatory (IL-4, IL-10, TGF) cytokines; assay: Serum cytokine profile in obesity model (immunoenzyme method); format: in vivo, rats; conditions: zinc aspartate 4.5 mg/animal intragastrically every third day
Description: as §1

[4] = test system: pro-inflammatory (IL-1, IL-6, IL-12, IFN-γ) and anti-inflammatory (IL-4, IL-10, TGF) cytokines; assay: Cytokine profile in adipose tissue in obesity model (immunoenzyme method); format: in vivo, rats; conditions: zinc aspartate 4.5 mg/animal intragastrically every third day, week 10
Description: Adipose tissue was crushed using cold scissors then transferred to a homogenizer with a loose-fitting Teflon pestle. […] Primary homogenate thus obtained was centrifuged at 600 g for 15 minutes. The supernatant was carefully collected and re-centrifuged at 15,000 g for 15 minutes. The supernatant was then frozen and stored at -80°C until the experiments.
The antigen solution, previously diluted with 0.1 M NaHCO3 buffer, pH 9.6, to a concentration of 10 µg/ml, was incubated in the plate wells for 12 hours at 4°C. Unbound material was removed by washing the wells three times with TBS buffer, first with 0.05% Tween-20, then without Tween-20. Non-specific binding sites were blocked by adding a solution of 5% skim milk or a solution of 1% bovine serum albumin to the plate wells and incubating them for 60 minutes at 37°C. After incubation, the wells were washed three times with TBS, first with 0.05% Tween-20, then without Tween-20. Primary antibodies were diluted in TBS in accordance with the manufacturer's instructions and incubated with the antigen for 60 min at 37°C. After washing with TBS working buffer, first with the addition of 0.05% Tween-20, then without Tween-20, the conjugate of secondary antibodies was added to the wells and incubated for 60 min at 37°C. As with the primary antibodies, secondary antibodies were diluted in TBS in accordance with the manufacturer's instructions. After the washing procedure, phenyldiamine dihydrochloride as substrate in 0.05M phosphate-citrate buffer was added to each well, followed by the addition of 0.3% hydrogen peroxide. After 10 minutes, the reaction time needed for development, 2.5 n H2SO4 was added.
The absorbance at a wavelength of 492 nm was measured using a µQuant microplate spectrophotometer (BioTek Instruments).

islets of Langerhans = assay: Morpho-functional analysis of pancreas in obesity model; format: in vivo, rats; conditions: zinc aspartate 4.5 mg/animal intragastrically every third day
Excerpt: After fixation, the pieces were rinsed in tap water. Then the material was dehydrated.
Dried preparations were stained with hematoxylin and eosin.

[5] = test system: peripheral serotonergic system (duodenum); assay: Indicators of the peripheral serotonergic system (duodenum) in obesity model; format: in vivo, rats; conditions: zinc aspartate 4.5 mg/animal intragastrically every third day, week 10
Excerpt: (§2) The tissue : buffer ratio was 1:10.
The samples were reprecipitated by centrifugation. […]
(§3) The supernatant was used in further studies.

[6] = test system: serotonergic system (serum); assay: Serum tryptophan, serotonin and monoamine oxidase activity in obesity model; format: in vivo, rats; conditions: zinc aspartate 4.5 mg/animal intragastrically every third day, week 10
Description: as §1
(§4) The samples were reprecipitated by centrifugation.
(§5) University. Medicine. - 2000. - 1, No. 494. - P. 40-43.

[7] = test system: central serotonergic system (brain); assay: Indicators of the central serotonergic system (brain) in obesity model; format: in vivo, rats; conditions: zinc aspartate 4.5 mg/animal intragastrically every third day, week 10
Excerpt: The animal's head was separated from the body and the skull was carefully cut. The brain was carefully lifted with a scalpel from the bony vault, all cranial nerves were amputated and the brain was removed from the skull. The brain was divided into two parts with a longitudinal incision made between the hemispheres.
as §2, §4, §5, §3

superoxide dismutase = assay: Serum superoxide dismutase activity in obesity model; format: in vivo; conditions: DIO rats (high-fat diet), zinc aspartate 4.5 mg/animal intragastrically every third day, week 10
Description: To measure superoxide dismutase activity, a method based on the ability of this enzyme to inhibit auto-oxidation of adrenaline was used.
Serum aliquots were added to microplate wells containing 0.2M bicarbonate buffer, pH 10. The reaction was initiated by adding 0.1% adrenaline solution in each well. A relevant volume of buffer was added to the "blank" wells to which no test sample was added. The optical density was measured at a wavelength of 347 nm using a µQuant microplate spectrophotometer (BioTek Instruments) at the 4th and 8th minute after adrenaline was added to the wells. The enzyme activity was expressed in relative units/min/mg.

[8] = Serum lipids, alkaline phosphatase activity and albumin in obesity model; format: in vivo, rats; conditions: table is an image
Excerpt: Test kit // Pliva-Lachema Diagnostika. - 2008.
The alkaline phosphatase activity was expressed in relative units.

[9] = Anthropometric values, amount and calorie content of food in high-fat diet induced obesity model; conditions: zinc aspartate 4.5 mg/animal intragastrically every third day; for BMI (g/cm^2) / Weight gain as of the end of the experiment (%): week 10
Description: White non-pedigree rats with an initial weight of 195-205±10 g were used in the experiment.
Before the start of the experiment, animals were maintained on a standard diet of the vivarium. To induce obesity in experimental animals, they were fed high-fat diet which consisted of standard feed (60%), lard (10%), chicken eggs (10%), sucrose (9%), peanuts (5%), dry milk (5%) and sunflower oil (1%) (1%) (see X. H. Shen et al., Exp. Biol. and Med. 235: 47-51 (2010)).
Animals in all groups were weighed once a week after an overnight fast. The amount of feed to be consumed by the animals was determined daily. At the end of a 10-week period of the development of obesity models, 24 hours after the last administration of the zinc isotope solution, animals were removed from their cages and decapitated.
The body mass index (BMI) (the ratio of body weight (g) to the square of body length (cm^2)) was calculated at the end of the experiment.
Animals with an initial weight of 195-205±10 g maintained on the standard diet of the vivarium before performing obesity models were used in the experiments.
Animals in all groups were weighed once a week after an overnight fast. The amount of feed to be consumed by the animals was determined daily.

[10] = 3750 µg of zinc per 1 kg intraperitoneally every other day
[11] = 3750 µg of zinc per 1 kg intraperitoneally
[12] = DIO rats (high-fat diet), week 10
[13] = control rats (standard diet), week 10
[14] = rats having obesity (high-fat diet)

CC(=O)[O-].CC(=O)[O-].[Zn+2] [Zn acetate, Zn(CH3COO)2, reference compound]
Glucose tolerance test, 0 min (1 h after effector administration) (Glucose tolerance test; blood glucose, fast overnight, dose: 5 mg/kg in a volume of 2 ml, individual animals 1-5, 5 mg/kg): 4.6 and 5.2 (2×) and 4.9 and 5.1
Glucose tolerance test, 60 min (1 h after glucose administration) (Glucose tolerance test; blood glucose, glucose 3 g/kg body weight in 2 ml, dose: 5 mg/kg in a volume of 2 ml, individual animals 1-5, 5 mg/kg): 7.2 (2×) and 6.9 and 7.3 and 6.8
glucose levels in the glucose tolerance test (Glucose tolerance test): glucose levels also dropped, though not so strongly
serum insulin levels at day 7 after the withdrawal [1, 10]: a drop in the insulin levels to the value of those of intact/control animals
serum insulin levels on the first day after the drug withdrawal [1, 10]: a significant increase
accumulation of zinc in the kidney tissues [1, 11]: significantly increased
accumulation of zinc in the liver tissues [1, 11]: significantly increased

N[C@@H](CC(=O)[O-])C(=O)[O-].[Zn+2] [^64Zne, zinc aspartate]
glucose levels in the glucose tolerance test (Glucose tolerance test; listed as zinc isotope): a drop in glucose concentration; also recorded: a decrease in glucose levels
glucose levels in the glucose tolerance test (Glucose tolerance test; listed as zinc isotope ^64Zn): a significant decrease in glucose levels
Aldehyde-dinitrophenyl-hydrazones, nmol/mg protein [2]: 0.253±0.012 nmol/mg protein
Ketone-dinitrophenyl-hydrazones, nmol/mg protein [2]: 0.200±0.024 nmol/mg protein
IFN-γ level [3, 12]: 4.1±1.2 RU/mg protein
IL-1 level [3, 12]: 4.2±0.4 RU/mg protein
IL-4 level [3, 12]: 5.6±1.6 RU/mg protein
IL-6 level [3, 12]: 5.1±0.4 RU/mg protein
IL-10 level [3, 12]: 6.8±1.1 # RU/mg protein
IL-12 level [3, 12]: 2.4±0.06 RU/mg protein
TGF level [3, 12]: 5.7±0.3 # RU/mg protein
TGF level ([3]; DIO rats (high-fat diet), week 10, listed as Zinc): 5.7±0.3 RU/mg protein
IFN-γ level [3, 13]: 4.6±0.6 RU/mg protein
IL-1 level [3, 13]: 3.5±0.7 RU/mg protein
IL-4 level [3, 13]: 4.6±0.8 RU/mg protein
IL-6 level [3, 13]: 4.3±0.2 RU/mg protein
IL-10 level [3, 13]: 4.1±0.5 RU/mg protein
IL-12 level [3, 13]: 0.3±0.04 RU/mg protein
TGF level [3, 13]: 4.1±0.4 RU/mg protein
IFN-γ level ([4]; DIO rats (high-fat diet)): 4.9±0.8 RU/mg protein
IL-4 level ([4]; DIO rats (high-fat diet)): 5.1±1.2 RU/mg protein
IL-6 level ([4]; DIO rats (high-fat diet)): 6.1±0.7 RU/mg protein
IL-10 level ([4]; DIO rats (high-fat diet)): 5.8±0.8 RU/mg protein
IL-12 level ([4]; DIO rats (high-fat diet)): 1.99±0.01 RU/mg protein
TGF level ([4]; DIO rats (high-fat diet)): 5.2±0.9 RU/mg protein
IFN-γ level ([4]; control rats (standard diet)): 5.0±0.8 RU/mg protein
IL-1 level ([4]; control rats (standard diet)): 4.9±1.7 RU/mg protein
IL-4 level ([4]; control rats (standard diet)): 5.0±0.4 RU/mg protein
IL-6 level ([4]; control rats (standard diet)): 5.4±0.3 RU/mg protein
IL-10 level ([4]; control rats (standard diet)): 4.9±0.2 RU/mg protein
IL-12 level ([4]; control rats (standard diet)): 1.0±0.03 RU/mg protein
TGF level ([4]; control rats (standard diet)): 5.1±0.6 RU/mg protein
cross-sectional surface area of the islets of Langerhans, increase compared with the obesity group (islets of Langerhans; [14]): 43%
cross-sectional surface area of the islets of Langerhans, lower than the control value (islets of Langerhans; [14]): 29%
cross-sectional surface area of the islets of Langerhans, decrease compared with the control group (islets of Langerhans; rats that ate a standard diet): 39%
Indoleamine dioxygenase activity, µmol/mg protein ([5]; DIO rats (high-fat diet)): 1768 ± 274 µmol/mg protein
Monoamine oxidase activity, RU/mg protein ([5]; DIO rats (high-fat diet)): 1.72 ±0.03 RU/mg protein
Serotonin ([5]; DIO rats (high-fat diet)): 9.73 ± 0.82 µg/g
Tryptophan ([5]; DIO rats (high-fat diet)): 89.4 ± 8.99 µg/g
Tryptophan decarboxylase activity, RU/mg protein ([5]; DIO rats (high-fat diet)): 0.78 ± 0.19 RU/mg protein
Tryptophan hydroxylase activity, RU/mg protein ([5]; DIO rats (high-fat diet)): 253 ± 58 RU/mg protein
Indoleamine dioxygenase activity, µmol/mg protein ([5]; control rats (standard diet)): 2150 ± 231 µmol/mg protein
Monoamine oxidase activity, RU/mg protein ([5]; control rats (standard diet)): 3.82 ±0.07 RU/mg protein
Serotonin ([5]; control rats (standard diet)): 7.41 ± 0.54 µg/g
Tryptophan ([5]; control rats (standard diet)): 154.7 ± 13.6 µg/g
Tryptophan decarboxylase activity, RU/mg protein ([5]; control rats (standard diet)): 0.79 ± 0.22 RU/mg protein
Tryptophan hydroxylase activity, RU/mg protein ([5]; control rats (standard diet)): 375 ± 61 RU/mg protein
Monoamine oxylase activity, RU/mg protein ([6]; DIO rats (high-fat diet)): 3.11±0.08 RU/mg protein
Serotonin ([6]; DIO rats (high-fat diet)): 6.33 ± 0.51 µg/g
Tryptophan ([6]; DIO rats (high-fat diet)): 66.65 ± 9.62 µg/g
Monoamine oxylase activity, RU/mg protein ([6]; control rats (standard diet)): 2.52±0.03 RU/mg protein
Serotonin ([6]; control rats (standard diet)): 10.16 ± 0.62 µg/g
Tryptophan ([6]; control rats (standard diet)): 56.12 ± 7.58 µg/g
Indoleamine dioxygenase activity, µmol/mg protein ([7]; DIO rats (high-fat diet)): 2007 ± 175 µmol/mg protein
Monoamine oxidase activity, RU/mg protein ([7]; DIO rats (high-fat diet)): 0.99±0.08 RU/mg protein
Serotonin ([7]; DIO rats (high-fat diet)): 20.1 ± 3.21 µg/g
Tryptophan ([7]; DIO rats (high-fat diet)): 31.56 ± 2.14 µg/g
Tryptophan decarboxylase activity, RU/mg protein ([7]; DIO rats (high-fat diet)): 1.86 ± 0.37 RU/mg protein
Tryptophan hydroxylase activity, RU/mg protein ([7]; DIO rats (high-fat diet)): 286 ± 17 RU/mg protein
Indoleamine dioxygenase activity, µmol/mg protein ([7]; control rats (standard diet)): 1178 ± 267 µmol/mg protein
Monoamine oxidase activity, RU/mg protein ([7]; control rats (standard diet)): 0.91 ±0.06 RU/mg protein
Serotonin ([7]; control rats (standard diet)): 25.51 ± 2.71 µg/g
Tryptophan ([7]; control rats (standard diet)): 87.71 ± 3.41 µg/g
Tryptophan decarboxylase activity, RU/mg protein ([7]; control rats (standard diet)): 1.63 ± 0.41 RU/mg protein
Tryptophan hydroxylase activity, RU/mg protein ([7]; control rats (standard diet)): 291 ± 29 RU/mg protein
Superoxide dismutase activity, RU/ min per mg protein (superoxide dismutase): 4.5±0.43 # RU/ min per mg protein
levels of triglycerides, cholesterol and free fatty acids in the serum ([8]; animals fed a high-fat diet, zinc aspartate 2.25 mg/ml intragastrically in a volume of 2 ml): almost at the same level as in the control group
alkaline phosphatase activity ([8]; serum, animals on high-fat diet treated intragastrically): higher than both in the group of diet-induced obesity models and in the control group
albumin values ([8]; serum, obese animals treated intragastrically, versus untreated obese animals): had no effect on albumin values
body weight of rats [1, 10]: a significant increase in the body weight
serum insulin levels at day 7 after the withdrawal [1, 10]: insulin levels in the blood of animals increased
serum insulin levels on the first day after the drug withdrawal [1, 10]: slightly higher than in the group of intact animals
serum insulin levels at day 7 after the withdrawal ([1]; 3750 µg of zinc per 1 kg intraperitoneally every other day, listed as zinc isotope): a significant increase in the insulin levels
accumulation of zinc in the kidney tissues [1, 11]: significantly increased
accumulation of zinc in the liver tissues [1, 11]: significantly increased
area of islets of Langerhans ([1]; 3750 µg of zinc per 1 kg intraperitoneally, day 7 after the last administration, compared to control group and zinc acetate group): a significant increase in the islet area
Amount of food consumed ([9]; DIO rats (high-fat diet)): 29 g/day
Calorie content of food ([9]; DIO rats (high-fat diet)): 823 kJ/day
BMI (g/cm^2) ([9]; DIO rats (high-fat diet)): 0.65 g/cm^2
Weight gain as of the end of the experiment (%) ([9]; DIO rats (high-fat diet)): 62%
Amount of food consumed ([9]; control rats (standard diet)): 32 g/day
Calorie content of food ([9]; control rats (standard diet)): 490 kJ/day
BMI (g/cm^2) ([9]; control rats (standard diet)): 0.59 g/cm^2
Weight gain as of the end of the experiment (%) ([9]; control rats (standard diet)): 59%

— patent publication EP4076432B1, “COMPOSITION AND METHOD FOR THE PREVENTION AND TREATMENT OF OBESITY” (Vector Vitale IP LLC, priority 2019, dated 2021)
